Experimental data reported in patent US20090118261A1, “QUINAZOLINONE DERIVATIVES AND THEIR USE AS B-RAF INHIBITORS” (ASTRAZENECA AB, priority 2004, published 2009).

Target: T1, human recombinant, purified wild type His-B-Raf protein kinase (Homo sapiens, UniProt P15056)
T1 construct: His
Assay: B-Raf In Vitro ELISA Assay
Assay type: biochemical
Conditions: phosphorylation of MEK1; 2.5 nM B-Raf, 0.15 μM MEK1, 10 μM ATP
Method: B-Raf In Vitro ELISA Assay
Activity of human recombinant, purified wild type His-B-Raf protein kinase was determined in vitro using an enzyme-linked immunosorbent assay (ELISA) assay format, which measures phosphorylation of the B-Raf substrate, human recombinant, purified His-derived (detagged) MEK1. The reaction utilized 2.5 nM B-Raf, 0.15 μM MEK1 and 10 μM adenosine triphosphate (ATP) in 40 mM N-(2-hydroxyethyl)piperazine-N′-(2-ethanesulfonic acid hemisodium salt (HEPES), 5 mM 1,4-dithio-DL-threitol (DTT), 10 mM MgCl2, 1 mM ethylenediaminetetraacetic acid (EDTA) and 0.2M NaCl (1×HEPES buffer), with or without compound at various concentrations, in a total reaction volume of 25 μl in 384 well plates. B-Raf and compound were preincubated in 1×HEPES buffer for 1 hour at 25° C. Reactions were initiated with addition of MEK1 and ATP in 1×HEPES buffer and incubated at 25° C. for 50 minutes and reactions stopped by addition of 10 μl 175 mM EDTA (final concentration 50 mM) in 1×HEPES buffer. 5 μl of the assay mix was then diluted 1:20 into 50 mM EDTA in 1×HEPES buffer, transferred to 384 well black high protein binding plates and incubated for 12 h at 4° C. Plates were washed in tris buffered saline containing 0.1% Tween20 (TBST), blocked with 50 μl Superblock (Pierce) for 1 hour at 25° C., washed in TBST, incubated with 50 μl rabbit polyclonal anti-phospho-MEK antibody (Cell Signaling) diluted 1:1000 in TBS for 2 h at 25° C., washed with TBST, incubated with 50 μl goat anti-rabbit horseradish peroxidase-linked antibody (Cell Signaling) diluted 1:2000 in TBS for 1 hour at 25° C. and washed with TBST. 50 μl of fluorogenic peroxidase substrate (Quantablu—Pierce) was added and following incubation for 45-60 mins, 50 μl QuantabluSTOP (Pierce) was added. Blue fluorescent product was detected at excitation 325 nm and emission 420 nm using a TECAN Ultra plate reader. Data was graphed and IC50s calculated using Excel Fit (Microsoft).

T1 sequence (P15056 whole entry): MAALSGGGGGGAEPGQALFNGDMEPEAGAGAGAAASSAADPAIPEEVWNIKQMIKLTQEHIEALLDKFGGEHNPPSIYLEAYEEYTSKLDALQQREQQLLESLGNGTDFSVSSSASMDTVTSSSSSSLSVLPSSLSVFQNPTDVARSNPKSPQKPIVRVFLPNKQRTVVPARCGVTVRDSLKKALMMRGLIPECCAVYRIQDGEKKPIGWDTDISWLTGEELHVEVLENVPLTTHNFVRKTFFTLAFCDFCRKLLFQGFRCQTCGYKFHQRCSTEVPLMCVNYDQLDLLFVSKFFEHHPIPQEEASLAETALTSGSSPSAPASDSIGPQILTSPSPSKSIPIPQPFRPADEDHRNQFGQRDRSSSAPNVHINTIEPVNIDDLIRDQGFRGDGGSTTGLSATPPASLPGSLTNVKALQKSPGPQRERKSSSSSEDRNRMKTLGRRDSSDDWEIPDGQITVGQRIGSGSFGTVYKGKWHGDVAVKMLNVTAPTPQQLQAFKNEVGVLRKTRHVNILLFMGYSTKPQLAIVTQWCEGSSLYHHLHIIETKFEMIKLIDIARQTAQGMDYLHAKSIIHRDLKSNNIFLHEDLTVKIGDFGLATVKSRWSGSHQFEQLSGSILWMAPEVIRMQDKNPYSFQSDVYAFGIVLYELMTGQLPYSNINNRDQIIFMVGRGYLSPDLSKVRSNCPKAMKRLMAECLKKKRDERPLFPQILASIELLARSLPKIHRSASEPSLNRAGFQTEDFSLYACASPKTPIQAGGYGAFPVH

IC50 [nM]	Compound
186	Cc1nc2ccc(Nc3cc(NC(=O)c4cccc(C(C)(C)C#N)c4)ccc3C)cc2c(=O)[nH]1 [Example 4, 3-(1-Cyano-1-methylethyl)-N-{4-methyl-3-[(2-methyl-4-oxo-3,4-dihydroquinazolin-6-yl)amino]phenyl}-benzamide]
347	Cc1ccc(NC(=O)c2cccc(C(C)(C)C#N)c2)cc1Nc1ccc2ncn(CCCN3CCOCC3)c(=O)c2c1 [Example 7, 3-(1-Cyano-1-methylethyl)-N-(4-methyl-3-{[3-(3-morpholin-4-ylpropyl)-4-oxo-3,4-dihydroquinazolin-6-yl]amino}phenyl)-benzamide]
1930	Cc1ccc(NC(=O)c2cccc(C(C)(C)C#N)c2)cc1N(C)c1ccc2ncn(C)c(=O)c2c1 [Example 33, 3-(Cyano-dimethyl-methyl)-N-{4-methyl-3-[methyl-(3-methyl-4-oxo-3,4-dihydro-quinazolin-6-yl)-amino]-phenyl}-beazamide]
